Results on one compound are retold here after US20190049436A1, “MODULATION OF ASYMMETRIC PROLIFERATION” (THE GENERAL HOSPITAL CORPORATION, priority 2012, published 2019).

Entries after “also recorded” stand apart in the source; their conditions may differ.

Assay [1] concerns cancer cells. As to conditions: cited from earlier work.
Assay [2] concerns MCF7 cells. The experiment in a line: Tumor formation in nude mice by cells pre-treated ex vivo with AKT1/2 inhibitor. As for the experimental part:
(§1) Xenografting & tumor propagation in vivo. For in vivo RICTOR knockdown experiments, 5×10^5 cells (MCF7, HCT116, A375, PC9, MDA-MB-231 cell lines) carrying either doxycycline-inducible non-silencing or RICTOR-targeting shRNAs (120392, 225915) were injected subcutaneously into the flanks of 5-6 week old, female nude mice. The mice were given doxycycline in water at 20 mg/ml for hairpin induction. For induction of asymmetrically dividing cells and slow proliferators, cells were treated with AKT1/2 inhibitor and DMSO (vehicle) for 72 h and were harvested at 60-70% confluence, and then counted and washed twice in PBS and resuspended in 1:1 Media: Matrigel (BD Biosciences). 5×10^6, 5×10^5, 5×10^4, 5×10^3 and 5×10^2 cells respectively were injected subcutaneously into the flanks of 5-6 week old, female nude mice (Nude/Nude) (Charles River Labs). For all experiments, growing tumors were measured weekly by caliper, and mice were killed after the tumor size reached 1 cm^3. Mouse experiments were carried out under a Massachusetts General Hospital Institutional Review Board-approved protocol.
(§2) Tumor studies in vivo. For TS2/16 antibody treatment studies in vivo, we injected 5×10^5 cells (A375, MDA-MB-231, PC9, HCT116, MCF7) subcutaneously into the flanks of 5-6 week old, female nude mice (Nude/Nude) (Charles River Labs). Once the tumors were palpable, mice were injected i.p. with TS2/16 ([…] at 4 mg/ml/wk×5 weeks) and the tumors were measured. For RICTOR knockdown experiments in vivo, we injected 5×10^5 cells (A375, MDA-MB-231, PC9, HCT116, MCF7) carrying either doxycycline-inducible non-silencing or RICTOR-targeting shRNAs (120392, 225915) subcutaneously into the flanks of 5-6 week old, female nude mice (Nude/Nude). The mice were given doxycycline in water at 20 mg/ml for hairpin induction starting immediately after implantation. For induction of slow proliferators, cells were treated with AKT1/2 inhibitor and DMSO (vehicle) for 72 h and were harvested at 60-70% confluence, and then counted and washed twice in PBS and resuspended in 1:1 Media: Matrigel (BD Biosciences). We then injected 5×106, 5×105, and 5×10^4 cells respectively subcutaneously into the flanks of 5-6 week old, female nude mice. For all experiments, growing tumors were measured weekly by caliper, and mice were killed when tumors reached approximately 1 cm3 in size. Animal experiments were carried out under a Massachusetts General Hospital Institutional Review Board-approved protocol.

The test system of assay [3] is HCT116 cells. The assay is described as above. As for the experimental part: as §1, §2
Assay [4] has as its system MCF7 cells. The experiment in a line: Confocal immunofluorescence scoring of asymmetrically dividing and G0-like (H3K9me2low/MCM2low/HES1high) cells. The format is cell-based, human. As to conditions: MCF7; small molecule for 72 h at the single dose (low, non-antiproliferative or target-suppressing); vs DMSO control. As for the experimental part:
(§3) Drug treatment in vitro. Cells were seeded onto collagen IV-coated coverslips, allowed to attach overnight, and treated with vehicle (DMSO) or AKT1/2 inhibitor (HCT116: 20μM; MCF7: 2 μM) (Sigma), MK2206 (HCT116: 10 μM; MCF7: 3 μM) (Selleck Chemicals), TORIN1 (HCT116: 0.5 μM; MCF7: 0.25 μM) (Tocris Bioscience), AZD8055 (HCT116: 0.7 μM; MCF7: 0.1 μM) (Selleck Chemicals), INK128 (HCT116: 0.05 μM; MCF7: 0.01 μM) (Active Biochem), Palomid 529 (HCT116: 10 μM; MCF7: 20 μM) (Selleck Chemicals), (Rapamycin (HCT116: 20 μM; MCF7: 20 μM)(Sigma), RAD-001 (HCT116: 10 μM; MCF7: 5 μM) (Selleck Chemicals), (AZD5363 (HCT116: 50 μM; MCF7: 5 μM) (Active Biochem), GDC0068 (HCT116: 50 μM; MCF7: 5 μM) (Active Biochem) for 72 h and Bortezemib (HCT116: 1 μM; MCF7: 4 μM) (Selleck Chemicals) MG-132 (vehicle: ethanol) (HCT116: 1 μM; MCF7: 10 μM), for 24 h.
(§4) Immunofluorescence staining. For bulk populations and for colonies, cells were grown directly on collagen IV-coated coverslips (Sigma). Cells were fixed in 3.7% formalin, permeabilized using 0.1% Triton X-100, and treated with 0.1% SDS. They were blocked in 1% BSA and then incubated with primary antibody (α-H3K9me2 (Abcam); α-MCM2 and α-Tubulin (Cell Signaling), α-Hes1 and α-TTC3 (Abnova)) diluted in blocking solution, washed, and incubated with the respective secondary antibody. Cells were mounted using hard-set mounting media containing DAPI (Vector Laboratories). All secondary antibodies were Alexa Fluor conjugates (488, 555, 568, 633, and 647) (Invitrogen). Immunofluorescence imaging (on a Nikon Eclipse Ti A1R-A1 confocal microscope) and live-cell imaging (on the Nikon Biostation CT platform) were performed as previously described (1).
(§5) Drug treatment in vitro. Cells were seeded onto collagen IV-coated coverslips, allowed to attach overnight, and treated with vehicle (DMSO) or AKT1/2 inhibitor (HCT116: 20 μM; MCF7: 2 μM) (Sigma), MK2206 (HCT116: 10 μM; MCF7: 3 μM) (Selleck Chemicals), TORIN1 (HCT116: 0.5 μM; MCF7: 0.25 μM) (Tocris Bioscience), AZD8055 (HCT116: 0.7 μM; MCF7: 0.1 μM) (Selleck Chemicals), INK128 (HCT116: 0.05 μM; MCF7: 0.01 μM) (Active Biochem), Palomid 529 (HCT116: 10 μM; MCF7: 20 μM) (Selleck Chemicals), (Rapamycin (HCT116: 20 μM; MCF7: 20 μM)(Sigma), RAD-001 (HCT116: 10 μM; MCF7: 5 μM) (Selleck Chemicals), BKM-120 (HCT116: 1.5 μM; MCF7: 0.5 μM) (Active Biochem), FAK inhibitors (PF-562271: 1 μM Pfizer) and NVP-TAE226 : 1 μM (Novartis), for both cell lines) for 72 h and Bortezemib (HCT116: 1 μM; MCF7: 4 μM) (Selleck Chemicals) MG-132 (vehicle: ethanol) (HCT116: 1 μM; MCF7: 10 μM), for 24 h.
as §4, with “(a-H3K9me2” for “(α-H3K9me2”, “A1R-A1™” for “A1R-A1”, “described7. Slides coated with Type-I collagen (control) and AlignCol™ woven with large collagen fibers (100-200 nm) (Advanced Biomatrix) were incubated for 1 hour in 70% ethanol and then washed with PBS. Cells were then plated on the slides and processed for immunofluorescence.” for “described (1).”
(§6) Antibody activation and inhibition. […]

For assay [5], the system named is HCT116 cells. The assay is described as above. It counts as cell-based, human. As to conditions: HCT116; small molecule for 72 h at the single dose (low, non-antiproliferative or target-suppressing); vs DMSO control. As for the experimental part: as §3, §4, §5
as §4, with “(a-H3K9me2” for “(α-H3K9me2”, “A1R-A1™” for “A1R-A1”, “described7. Slides coated with Type-I collagen (control) and AlignCol™ woven with large collagen fibers (100-200 nm) (Advanced Biomatrix) were incubated for 1 hour in 70% ethanol and then washed with PBS. Cells were then plated on the slides and processed for immunofluorescence.” for “described (1).”
as §6

For `O=c1[nH]c2ccccc2n1C1CCN(Cc2ccc(-c3nc4cc5[nH]cnc5cc4nc3-c3ccccc3)cc2)CC1` [AKT1/2], in assay [1], the “effect on cancer cells at higher doses” value is “kills cancer cells”. In addition, the “tumor size, larger on average than tumors from untreated cell populations” value amounted to 50% in assay [2] (MCF7 pre-treated 72 h, implanted in nude mice) and 50% in assay [3] (HCT116 pre-treated 72 h, implanted in nude mice). In addition, the engraftment result is “significantly increased; also recorded: significantly promoted” in assay [2] (MCF7 pre-treated 72 h with low dose, implanted s.c. in nude mice over a range of cell numbers, vs DMSO-treated cells) and “significantly increased; also recorded: significantly promoted” in assay [3] (HCT116 pre-treated 72 h with low dose, implanted s.c. in nude mice over a range of cell numbers, vs DMSO-treated cells). The “tumor size over time” value in assay [2] (MCF7 pre-treated with low dose ex vivo, s.c. in nude mice, 100-fold cell number range) is on record as “notably larger”; in assay [3] (HCT116 pre-treated with low dose ex vivo, s.c. in nude mice, 100-fold cell number range) it was “notably larger”. Also, the “frequency of asymmetrically dividing and G0-like cells” value in assay [4] and in assay [5] was “dramatically increases” in each case.
